From ChEMBL document CHEMBL3861965, “Stereochemical Assignment and Biological Evaluation of BE-14106 Unveils the Importance of One Acetate Unit for the Antifungal Activity of Polyene Macrolactams” (J Nat Prod, 2016)
Converted amounts (≈) assume the structure as drawn. The source made the active and inactive calls. The calls are words filed in the database; no cut-off is given here.

Tests used:
Type in all cases: functional
[1] = Antifungal activity against wild type fission yeast JY1 after 24 hrs by XTT assay; conditions: Schizosaccharomyces pombe
[2] = Antifungal activity against fission yeast harboring deltaerg2 mutant after 24 hrs by turbidity assay; conditions: Schizosaccharomyces pombe
[3] = Antifungal activity against wild type fission yeast JY1 after 24 hrs by turbidity assay; conditions: Schizosaccharomyces pombe
[4] = Antifungal activity against fission yeast harboring deltasts1/erg4 mutant after 24 hrs by turbidity assay; conditions: Schizosaccharomyces pombe
[5] = system: Schizosaccharomyces pombe; test: Antifungal activity against wild type fission yeast JY1 assessed as accumulation of cell wall material at 0.25 uM after 2 hrs by cfw-dye based fluorescence microscopic analysis
[6] = Antifungal activity against fission yeast harboring deltaerg5 mutant after 24 hrs by turbidity assay; conditions: Schizosaccharomyces pombe
[7] = Antifungal activity against fission yeast harboring deltaerg31/deltaerg32 mutant after 24 hrs by turbidity assay; conditions: Schizosaccharomyces pombe

Compound	MIC [1] [µM]	MIC [2] [µM]	MIC [3] [µM]	MIC [4] [µM]	Activity [5]	MIC [6] [µM]	MIC [7] [µM]
C[C@@H]1[C@H](O)[C@@H](C)/C=C/C=C/C=C/C=C/C=C/C=C/C=C/[C@H](O[C@@H]2O[C@H](C)[C@@H](O)[C@H](N)[C@@H]2O)C[C@@H]2O[C@](O)(C[C@@H](O)C[C@@H](O)[C@H](O)CC[C@@H](O)C[C@@H](O)CC(=O)O[C@H]1C)C[C@H](O)[C@H]2C(=O)O	0.27 (≈ 0.25 µg/mL)						
CCC/C=C/C=C/C[C@@H]1C/C=C/C=C(C)/C=C/C=C\[C@@H](O)[C@@H](O)/C=C(C)/C=C/C=C/C(=O)N1		0.13 to 0.28 (≈ 0.0585 to 0.126 µg/mL)	0.13 to 0.28 (≈ 0.0585 to 0.126 µg/mL)	0.13 to 0.28 (≈ 0.0585 to 0.126 µg/mL)	Active	0.13 to 0.28 (≈ 0.0585 to 0.126 µg/mL)	0.13 to 0.28 (≈ 0.0585 to 0.126 µg/mL)
